In patent US20060223837A1 (priority 2005, published 2006):
Blank lines part the entries; values can stand above or below the compound they belong to.

Key:
[1] = target: T1, human VR1 (Homo sapiens, UniProt Q8NER1); experiment: Human VR1 [3H]RTX binding assay; conditions: for Ki: [3H]RTX binding, HEK293 membranes; for inhibition at 1 µM / h Binding % I (1 μM): inhibition of [3H]RTX binding at 1 μM; for inhibition at 1 µM: read-out: h Binding % I (1 μM)
T1 construct: expressed in transfected cells; host or cells: HEK293
T1 sequence (Q8NER1 whole entry): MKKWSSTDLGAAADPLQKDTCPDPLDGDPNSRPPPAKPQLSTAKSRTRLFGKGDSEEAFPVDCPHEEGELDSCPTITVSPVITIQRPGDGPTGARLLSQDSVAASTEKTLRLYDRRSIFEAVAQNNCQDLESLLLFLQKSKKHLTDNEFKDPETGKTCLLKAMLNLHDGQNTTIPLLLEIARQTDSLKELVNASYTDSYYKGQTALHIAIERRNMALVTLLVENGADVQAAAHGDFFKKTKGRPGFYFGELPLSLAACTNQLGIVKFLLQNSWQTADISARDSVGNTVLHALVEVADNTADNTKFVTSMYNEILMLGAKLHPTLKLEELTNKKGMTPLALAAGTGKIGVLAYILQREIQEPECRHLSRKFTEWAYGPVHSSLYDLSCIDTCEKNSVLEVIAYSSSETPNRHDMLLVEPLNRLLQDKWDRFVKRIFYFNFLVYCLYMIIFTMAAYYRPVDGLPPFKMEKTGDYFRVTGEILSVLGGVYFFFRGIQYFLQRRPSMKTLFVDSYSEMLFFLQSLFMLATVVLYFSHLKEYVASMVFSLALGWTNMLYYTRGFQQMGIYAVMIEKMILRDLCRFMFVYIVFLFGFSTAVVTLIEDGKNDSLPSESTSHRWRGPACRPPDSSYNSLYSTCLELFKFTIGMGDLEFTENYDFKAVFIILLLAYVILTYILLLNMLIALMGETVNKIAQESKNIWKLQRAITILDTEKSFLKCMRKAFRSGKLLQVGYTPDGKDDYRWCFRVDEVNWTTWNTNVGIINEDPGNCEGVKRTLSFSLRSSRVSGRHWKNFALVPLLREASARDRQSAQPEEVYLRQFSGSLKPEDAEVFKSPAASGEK
Method: Compounds of the present invention were tested for their ability to inhibit the binding of tritiated resiniferatoxin ([^3H] RTX) to human VR1 receptors in a [^3H] RTX binding assay, as previously described (Zhang, Sui-Po. Improved ligand binding assays for vanilloid receptors. PCT Int. Appl. (2002), WO 0233411 A1 20020425 AN 2002:315209; Grant, Elfrida R., Dubin, Adrienne E., Zhang, Sui-Po, Zivin, Robert A., Zhong, Zhong Simultaneous intracellular calcium and sodium flux imaging in human VR1-transfected human embryonic kidney cells: a method to resolve ionic dependence of VR1-mediated cell death. J. Pharmacol. Exp. ther., 2002, 300(1), 9-17.) HEK293 cells were transfected with human VR1 and washed with Hank's balanced Salt Solution, dissociated with cell dissociation buffer (Sigma), and then centrifuged at 1000× g for 5 min. Cell pellets were homogenized in cold 20 mM HEPES buffer (pH 7.4), containing 5.8 mM NaCl, 320 mM sucrose, 2 mM MgCl2, 0.75 CaCl2 and 5 mM KCl and centrifuged at 1000× g for 15 min. The resultant supernate was then centrifuged at 40000× g for 15 min. The pelleted membranes were stored in a freezer at −80 C.
Approximately 120 μg protein/ml from membranes were incubated with indicated concentrations of [^3H]RTX in 0.5 ml of the HEPES buffer (pH 7.4) containing 0.25 mg/mL fatty acid-free bovine serum albumin at 37 C for 60 min. After cooling the reaction mixture to 4 C, 0.1 mg (x-acid glycoprotein was added to each sample, which was incubated at 4 C for 15 min and then centrifuged at 18500× g for 15 min. The tip of the microcentrifuge tube containing the pellet was cut off. Bound radioactivity was quantified by scintillation counting. Non-specific binding was assessed in the presence of 200 nM unlabeled resiniferatoxin.
Data were calculated according to the equation: % inhibtion=(total binding−binding)*100/(total binding−non specific binding).
Ki values were calculated based on an average of duplicate measurements using a GraphPad Prism program.

[2] = target: T1, human VR1; experiment: Human VR1 functional assay (FLIPR intracellular Ca2+); assay type: cell-based; conditions: for Emax at 12 µM / % Response Relative to EC80 of Capsaicin (12 μM) / Emax at 6 µM: agonist response; for Emax at 12 µM: read-out: % Response Relative to EC80 of Capsaicin (12 μM); for IC50: antagonism of capsaicin-induced Ca2+ increase, read-out: h IC50; for inhibition at 5 µM: read-out: h % I (5 μM); for inhibition at 1 µM: read-out: h % I (1 μM); for Emax at 6 µM: read-out: % Response Relative to EC80 of Capsaicin (6 μM); for EC50: agonist-induced Ca2+ increase, read-out: h EC50
Method: The functional activity of the test compounds was determined by measuring changes in intracellular calcium concentration using a Ca^2+-sensitive fluorescent dye and FLIPR™ technology. Increases in Ca^2+ concentration were readily detected upon challenge with capsaicin. HEK293 Cells expressing human VR1 were grown on poly-D-lysine coated 384 well black-walled plates (BD 354663) and 1 day later loaded with Calcium 3 Dye for 35 min at 37 C, 5% CO2 and then for 25 min at room temperature, and subsequently tested for agonist-induced increases in intracellular Ca^2+ levels using FLIPR™ technology. Cells were challenged with test compounds (at varying concentrations, which are indicated in parentheses in the heading of the table below) and intracellular Ca^2+ was measured for 5 min prior to the addition of capsaicin to all wells to achieve a final concentration of eliciting an approximate 80% maximal response ([…]). EC50 or IC50 values were determined from dose-response studies. Curves were generated using the average of quadruplicate wells for each data point.

[3] = inhibition of capsaicin response, 10 μM
[4] = inhibition of capsaicin response

SMILES: CC(=O)Nc1cccc(-c2ccc(NC(=O)CCc3ccc(C(C)(C)C)cc3)cc2C)c1 [Cpd 55]
- Ki [1]: 184 nM
- inhibition at 1 µM [1]: 66%
- Emax at 12 µM [2]: 69%

SMILES: O=C(CCc1ccc(Cl)cc1)Nc1ccc(-c2ccncc2)c(C(F)(F)F)c1 [Cpd 230]
- Ki [1]: 1020 nM
- IC50 [2]: 202 nM
- inhibition at 5 µM [2, 4]: 101%

SMILES: O=C(CCc1ccc(Cl)cc1)Nc1ccc(-n2cnc(Cl)c2Cl)c(C(F)(F)F)c1 [Cpd 231]
- Ki [1]: 26.2 nM
- IC50 [2]: 240 nM
- inhibition at 1 µM [2, 4]: 90%

SMILES: CC(C)(C)c1ccc(CCC(=O)Nc2ccc(-c3cccc(O)c3)c(CO)c2)cc1 [Cpd 93]
- Ki [1]: 34 nM
- Emax at 6 µM [2]: 153%
- EC50 [2]: 65 nM
- inhibition at 1 µM [2, 4]: 93%

SMILES: O=C(CCc1ccc(C(F)(F)F)cc1)Nc1ccc(-c2ccncc2)c(C(F)(F)F)c1 [Cpd 220]
- Ki [1]: 99.8 nM
- IC50 [2]: 121 nM
- inhibition at 5 µM [2, 4]: 100%

SMILES: Cc1cc(NC(=O)CCc2ccc(N(C)C3CCCCC3)cc2)cnc1-n1cnc(Cl)c1Cl [Cpd 232]
- Ki [1]: 80 nM
- IC50 [2]: 249 nM
- inhibition at 1 µM [2, 4]: 99%

SMILES: CC(=O)c1cccc(-c2ccc(NC(=O)CCc3ccc(C(C)(C)C)cc3)cc2)c1 [Cpd 13]
- h Binding % I (1 μM) [1]: 35%
- h % I (10 μM) [2, 3]: 35%

SMILES: CC(C)(C)c1ccc(CCC(=O)Nc2ccc(-c3cccc(C(N)=O)c3)c(C(=O)O)c2)cc1 [Cpd 72]
- h Binding % I (1 μM) [1]: 1%
- h % I (10 μM) [2, 3]: 11%

SMILES: CC(C)(C)c1ccc(CCC(=O)Nc2ccc(-c3ccccc3O)cc2)cc1 [Cpd 10]
- Ki [1]: 50 nM
- h Binding % I (1 μM) [1]: 89%
- % Response Relative to EC80 of Capsaicin (12 μM) [2]: 67%
- h % I (10 μM) [2, 3]: 40%

SMILES: Cc1cn(-c2ccc(NC(=O)CCc3ccc(C(F)(F)F)cn3)cc2C(F)(F)F)cn1 [Cpd 233, N-[4-(4-Methyl-imidazol-1-yl)-3-trifluoromethyl-phenyl]-3-(5-trifluoromethyl-pyridin-2-yl)-propionamide]
- Ki [1]: 1000 nM
- IC50 [2]: 259 nM
- inhibition at 1 µM [2, 4]: 98%

SMILES: O=C(CCc1ccc(C(F)(F)F)cc1)Nc1ccc(-c2ccc(O)cc2)nc1 [Cpd 148]
- Ki [1]: 98.6 nM
- inhibition at 1 µM [1]: 73%
- Emax at 12 µM [2]: 74%

SMILES: CC(C)(C)c1ccc(CCC(=O)Nc2ccc(-c3cccc(C(F)(F)F)c3)cc2)cc1 [Cpd 12]
- h Binding % I (1 μM) [1]: 36%
- % Response Relative to EC80 of Capsaicin (12 μM) [2]: 47%

SMILES: CC(C)(C)c1ccc(CCC(=O)Nc2ccc(-c3ccncc3)c3ccccc23)cc1 [Cpd 153]
- h Binding % I (1 μM) [1]: 1%
- h % I (5 μM) [2, 4]: 25%

SMILES: CC(C)(C)c1ccc(CCC(=O)Nc2ccc(-c3cccc(NCCO)c3)cc2)cc1 [Cpd 46]
- inhibition at 1 µM [1]: 34%
- IC50 [2]: 4770 nM
- inhibition at 10 µM ([2]; inhibition of capsaicin response, 10 μM, read-out: h % I (10 μM)): 53%

SMILES: CN(C)C(=O)c1cccc(-c2ccc(NC(=O)CCc3ccc(C(C)(C)C)cc3)cc2)c1 [Cpd 39]
- h Binding % I (1 μM) [1]: 5%
- h % I (10 μM) [2, 3]: 24%

SMILES: O=C(CCc1ccc(C(F)(F)F)cc1)Nc1cnc(-n2ccnc2)c(C(F)(F)F)c1 [Cpd 240]
- Ki [1]: 3850 nM
- IC50 [2]: 379 nM
- inhibition at 5 µM [2, 4]: 101%

SMILES: CC(=O)Nc1cccc(-c2ccc(NC(=O)CCc3ccc(C(C)(C)C)cc3)c3ccccc23)c1 [Cpd 81]
- h Binding % I (1 μM) [1]: 6%
- h % I (5 μM) [2, 4]: 11%

SMILES: CC(C)(C)c1ccc(/C=C/C(=O)Nc2ccc(-c3cccc(C(N)=O)c3)cc2)cc1 [Cpd 35, 4′-[3-(4-tert-butyl-phenyl)-acryloylamino]-biphenyl-3-carboxylic acid amide]
- inhibition at 1 µM [1]: 30%
- Emax at 12 µM [2]: 53%

SMILES: O=C(CCc1ccc(C(F)(F)F)cc1)Nc1ccc(-n2cnc(Cl)c2)c(C(F)(F)F)c1 [Cpd 227, N-[4-(4-Chloro-imidazol-1-yl)-3-trifluoromethyl-phenyl]-3-(4-trifluoromethyl-phenyl)-propionamide]
- Ki [1]: 90.8 nM
- IC50 [2]: 168 nM
- inhibition at 1 µM [2, 4]: 100%

SMILES: CC(C)(C)c1ccc(CCC(=O)Nc2ccc(-c3ccc(CO)cc3)c(F)c2)cc1 [Cpd 102]
- Ki [1]: 39 nM
- Emax at 6 µM [2]: 74%
- inhibition at 1 µM [2, 4]: 97%

SMILES: CC(C)(C)c1ccc(CCC(=O)Nc2ccc(-c3ccncc3)c(F)c2)cc1 [Cpd 182]
- Ki [1]: 55 nM
- Emax at 6 µM [2]: 97%
- inhibition at 1 µM [2, 4]: 80%

SMILES: Cc1cc(NC(=O)CCc2ccc(C(F)(F)F)cc2)cnc1-n1cnc(Cl)c1Cl [Cpd 203, N-[6-(4,5-Dichloro-imidazol-1-yl)-5-methyl-pyridin-3-yl]-3-(4-trifluoromethyl-phenyl)-propionamide]
- Ki [1]: 34 nM
- IC50 [2]: 35.2 nM
- inhibition at 1 µM [2, 4]: 99%
- inhibition at 5 µM [2, 4]: 100%

SMILES: CC(C)(C)c1ccc(CCC(=O)Nc2ccc(-c3ccncc3)nc2)cc1 [Cpd 137]
- Ki [1]: 93 nM
- inhibition at 1 µM [1]: 66%
- Emax at 12 µM [2]: 96%

Results, then the compound that gave them:

- h Binding % I (1 μM) [1]: 1%
- h % I (10 μM) [2, 3]: 5%
SMILES: CC(C)(C)c1ccc(CCC(=O)Nc2ccc(-c3cccc(O)c3)cc2CO)cc1 [Cpd 71]

- h Binding % I (1 μM) [1]: 16%
- % Response Relative to EC80 of Capsaicin (12 μM) [2]: 55%
SMILES: CN(C)C(=O)c1cccc(-c2ccc(NC(=O)/C=C/c3ccc(C(C)(C)C)cc3)cc2)c1 [Cpd 36]

- inhibition at 1 µM [1]: 16%
- Emax at 12 µM [2]: 84%
- EC50 [2]: 2400 nM
SMILES: CC(C)(C)c1ccc(CCC(=O)Nc2ccc(-c3cccc(OCCN)c3)cc2)cc1 [Cpd 45]

- Ki [1]: 289 nM
- inhibition at 1 µM [1]: 56%
- Emax at 12 µM [2]: 70%
SMILES: O=C(CCc1ccc(C(F)(F)F)cc1)Nc1ccc(-c2ccc(O)cc2)cc1 [Cpd 78]

- Ki [1]: 70.4 nM
- IC50 [2]: 76.2 nM
- inhibition at 5 µM [2, 4]: 99%
SMILES: CC(=O)Nc1cccc(-c2ncc(NC(=O)CCc3ccc(C(C)(C)C)cc3)cc2C)c1 [Cpd 216]

- Ki [1]: 41 nM
- inhibition at 1 µM [1]: 88%
- Emax at 12 µM [2]: 126%
- EC50 [2]: 17 nM
SMILES: CC(C)(C)c1ccc(CCC(=O)Nc2ccc(-c3cccc(O)c3)nc2)cc1 [Cpd 129]

- Ki [1]: 7.4 nM
- IC50 [2]: 74.3 nM
- inhibition at 5 µM [2, 4]: 100%
SMILES: Cc1cc(NC(=O)CCc2ccc(C(C)(C)C)cc2)cnc1-n1cnc(Cl)c1Cl [Cpd 215]

- Ki [1]: 18.4 nM
- IC50 [2]: 147 nM
- inhibition at 5 µM [2, 4]: 101%
SMILES: CC(C)(C)c1ccc(CCC(=O)Nc2cnc(-n3cnc(Cl)c3Cl)c(C(F)(F)F)c2)cc1 [Cpd 224]

- h Binding % I (1 μM) [1]: 41%
- % Response Relative to EC80 of Capsaicin (12 μM) [2]: 74%
SMILES: CC(C)(C)c1ccc(CCC(=O)Nc2ccc(-c3cccc(NS(C)(=O)=O)c3)cc2)cc1 [Cpd 40]

- h Binding % I (1 μM) [1]: 56%
- h % I (5 μM) [2, 4]: 98%
SMILES: Cn1cnc(-c2ccc(NC(=O)CCc3ccc(C(C)(C)C)cc3)cc2)c1 [Cpd 190]

- Ki [1]: 500 nM
- inhibition at 5 µM [2, 4]: 93%
SMILES: O=C(CCc1ccc(C(F)(F)F)cc1)Nc1ccc(-c2cccnc2F)c(C(F)(F)F)c1 [Cpd 258]

- Ki [1]: 88.7 nM
- IC50 [2]: 41 nM
- inhibition at 1 µM [2, 4]: 100%
SMILES: Cc1cn(-c2ccc(NC(=O)/C=C/c3ccc(SC(F)(F)F)cc3)cc2C(F)(F)F)cn1 [Cpd 208]

- Ki [1]: 86 nM
- inhibition at 1 µM [1]: 67%
- Emax at 12 µM [2]: 24%
SMILES: CC(C)(C)c1ccc(CCC(=O)Nc2ccc(-c3cccc(O)c3)cc2)cc1 [Cpd 6, 3-(4-tert-butyl-phenyl)-N-(3′-hydroxy-biphenyl-4-yl)-propionamide]

- Ki [1]: 68 nM
- Emax at 6 µM [2]: 96%
- inhibition at 1 µM [2, 4]: 87%
SMILES: CC(C)(C)c1ccc(CCC(=O)Nc2ccc(-c3ccccc3O)c(F)c2)cc1 [Cpd 100]

- Ki [1]: 31.2 nM
- inhibition at 1 µM [1]: 90%
- Emax at 12 µM [2]: 79%
SMILES: CC(C)(C)c1ccc(CCC(=O)Nc2ccc(-c3ccc(CO)cc3)nc2)cc1 [Cpd 135]

- h Binding % I (1 μM) [1]: 1.1%
- h % I (10 μM) [2, 3]: 9%
SMILES: CC(C)(C)OC(=O)NCc1cccc(-c2ccc(NC(=O)CCc3ccc(C(C)(C)C)cc3)cc2)c1 [Cpd 42]
